From paper PMC9043997, “LEAP2 reduces postprandial glucose excursions and ad libitum food intake in healthy men” (Cell Reports Medicine, 2022)
Where a SMILES comes first, the peptide text is derived from it. Bridges are numbered along the chain shown (N, C = ends).

Assays:
[1] = system: healthy men; experiment: Plasma acyl ghrelin during LEAP2 infusion, crossover study; type: in vivo, human; settings: mean ± SEM
Source text: The infusion was terminated when participants had finished eating.
For analysis of plasma glucose, blood was distributed in fluoride heparin-coated tubes, centrifuged immediately for 30 s (12,100 g, room temperature) and measured bedside by the glucose oxidase method (YSI 2900 Biochemistry Analyzer; YSI Incorporated, Yellow Springs, Ohio, USA). For analysis of LEAP2, blood was collected in chilled K3EDTA tubes each containing 250 KIU of aprotinin. For analysis of acyl ghrelin, blood was collected in chilled K2EDTA tubes added 20 μL pefabloc (100 mg/mL; Merck Millipore, Burlington, Massachusetts, USA). Subsequently, pefabloc-treated plasma was acidified with HCl (12.5 μL 2M HCl per 500 μL plasma; Merck Millipore, Burlington, Massachusetts, USA). For analysis of glucagon, blood was collected in K2EDTA tubes. For analysis of GH, insulin, C-peptide, free fatty acids, glycerol, triglycerides and acetaminophen (paracetamol), blood was collected in tubes with lithium and heparin. All tubes were immediately cooled on ice, centrifuged for 15 min (2,000 g, 4°C) and stored at −80°C until analysis. LEAP2 concentrations were determined by an in-house radioimmunoassay directed against the N-terminal part of LEAP2. LEAP-2 was used for standards, and the tracer was a peptide composed of the 12 N-terminal amino acids of LEAP2, with a ^125I-labelled tyrosine added to the C-terminal end. The precision and accuracy of the assay were evaluated based on European Medicines Agency's guidelines for bioanalytical assay validation. […] Due to supply chain disruptions from the COVID-19 pandemic, acyl ghrelin was only measured in plasma samples at timepoints 0, 60, 105, 165 and 255 min. […] Plasma GH was measured by Immunodiagnostic system-iSYS assay (IS-3700; IDS Limited, Boldon, UK). The assay is based on chemiluminesence technology and was performed according to the manufacturer’|'s instructions. […] For analysis of glucagon, plasma was extracted in a final concentration of 70% ethanol. Glucagon was measured using a C-terminal directed antiserum (code number 4305) measuring glucagon of pancreatic origin as previously described.[40] […] Plasma insulin and C-peptide were measured using a two-sided electrochemiluminescence immunoassay (Atellica IM Analyzer; Siemens Healthcare, Ballerup, Denmark). Plasma triglycerides and acetaminophen were analyzed by spectrophotometric methods following enzymatic hydrolysis and oxidation (Siemens Atellica CH 930; Siemens Healthcare, Ballerup, Denmark). Plasma concentrations of free fatty acids and glycerol were determined by enzymatic methods modified to run on a COBAS 6000 automatic analyzer (Roche, Rødovre, Denmark) using a NEFA-HR assay (Wako Chemicals, Neuss, Germany) and glycerol assay (Randox Laboratories, Crumlin, UK), respectively.
Unless otherwise stated, results are presented as mean ± SEM. Baseline values were calculated as a mean of timepoints −35, −10 and 0 min or, when only available −10 and 0 min. Baseline values for the postprandial period were calculated as a mean of timepoint 60 min. Calculations of AUC were based on the trapezoidal rule. AUC values are reported for the period 0 to 255 min. To assess the fasting and postprandial periods separately, AUC values are reported for the periods 0 to 60 min and 60 to 255 min, respectively. Student’s paired t test was used to test for differences in baseline, peak, time to peak, AUC and mean values and ad libitum food intake in men.

[2] = system: healthy men; experiment: Plasma glucose and VAS ratings during the pharmacokinetic study; type: in vivo, human
Protocol: Eight healthy men, recruited among participants in the placebo-controlled, crossover study, were included in an additional clinical study investigating the kinetic parameters of exogenous LEAP2. Each participant underwent a single experimental day with intravenous infusion of LEAP2 (10 min at a rate of ∼101 pmol/kg/min followed by 110 min at ∼25 pmol/kg/min) (see Figure S1B for an overview of the clinical study design). […] Fasting schedule for participants and all instructions from 48 h prior to the experimental day were similar to the placebo-controlled, crossover study. […] LEAP2 infusion was started at timepoint 0 min and discontinued after 120 min. Blood samples were drawn every 15 min from timepoint −30 to 270 min and, additionally, at timepoints 118, 122, 124, 127 and 130 min. Plasma glucose was measured bedside every 15 min from timepoint −30 to 180 min and every 30 min from timepoint 180 to 270 min with a mean concentration of 4.85 ± 0.02 mmol/L. For analytical procedures related to plasma glucose and LEAP2 concentrations, please see the section “Human plasma analyses”. Every 30 min from time −30 to 270 min, participants rated appetite-related sensations on 100 mm VAS[34] with a score (median (interquartile range)) for hunger of 72 (59–79) mm, prospective food consumption 73 (65–82) mm, satiety 22 (14–33) mm, fullness 21 (12–31) mm, comfort 78 (72–90) mm, thirst 78 (71–89) mm and nausea 3.0 (0–9.0).

[3] = system: wild-type mice; experiment: Fasting insulin and plasma glucose after subcutaneous LEAP2 in fasted wild-type mice; type: in vivo, mouse; settings: fasted female wild-type mice, LEAP2 3 μmol/kg subcutaneous
Protocol: For fasting insulin and glucose concentrations, females (15 weeks of age) were used. Mice were housed four mice per cage. On the experimental day, mice were fasted from four hours before subcutaneous administration until end of the study and randomized by body weight into either vehicle (saline) or LEAP2 dosing (3 μmol/kg). Blood samples were collected at timepoints −60, 20 and 60 min from the retro-orbital vein plexus using EDTA-coated capillary tubes. Plasma was subsequently separated from the blood after centrifugation (3,000 g, 4°C, 5 min) and stored at −80°C until analysis. Blood glucose was measured at timepoints −60, 20 and 60 min from eye blood and at timepoint 0 min from a tail puncture by use of the same glucometer (Contour ™xt meter; Ascensia Diabetes Care, Basel, Switzerland). Mouse plasma insulin concentrations were determined by use of a Mouse/Rat Insulin Kit (cat: K152BZC-1; Meso Scale Discovery, Gaithersburg, Maryland, USA). The assay was performed according to the manufacturer’s instructions, and the plate was measured by use of MESO QuickPlex SQ 120.

[4] = healthy fasting men n = 8, -30 to 270 min, median (interquartile range)

For `CC[C@H](C)[C@@H]1NC(=O)[C@@H]2CSSC[C@@H](C(=O)N[C@@H](CO)C(=O)N[C@@H](CC(C)C)C(=O)N[C@@H](CO)C(=O)N[C@H](C(=O)N[C@@H](C)C(=O)N[C@@H](CCC(N)=O)C(=O)N[C@@H](CCC(=O)O)C(=O)O)C(C)C)NC(=O)[C@H](CCCNC(=N)N)NC(=O)[C@H](CCCNC(=N)N)NC(=O)[C@H](CCCCN)NC(=O)[C@H](CCCNC(=N)N)NC(=O)[C@H](CSSC[C@H](NC(=O)[C@H](CO)NC(=O)[C@H](C)NC(=O)CNC(=O)[C@@H](NC(=O)[C@@H]3CCCN3C(=O)[C@H](CCCNC(=N)N)NC(=O)[C@H](CC(C)C)NC(=O)[C@H](CO)NC(=O)[C@@H](NC(=O)CNC(=O)[C@H](CCCNC(=N)N)NC(=O)[C@H](Cc3c[nH]c4ccccc34)NC(=O)[C@H](Cc3ccccc3)NC(=O)[C@@H]3CCCN3C(=O)[C@@H](NC(=O)[C@@H](N)CCSC)[C@@H](C)O)C(C)C)[C@@H](C)CC)C(=O)N[C@@H](CCCNC(=N)N)C(=O)N[C@@H](CC(=O)O)C(=O)N[C@@H](CC(=O)O)C(=O)N[C@@H](CO)C(=O)N[C@@H](CCC(=O)O)C(=O)N2)NC(=O)[C@H](CC(C)C)NC(=O)[C@H](CCCNC(=N)N)NC(=O)[C@H]([C@@H](C)O)NC1=O` [LEAP2, liver-expressed antimicrobial peptide 2] (H-MTPFWRGVSLRPIGASCRDDSECITRLCRKRRCSLSVAQE-OH; disulfide 17-28, 23-33 (inferred); N-terminus and C-terminus assumed), the “Acyl ghrelin Baseline” value ([1]; healthy men n = 20, LEAP2 day, before infusion) was 0.155 ± 0.011 ng/mL, the “Acyl ghrelin AUC” value ([1]; healthy men n = 20, iv LEAP2 ~25 pmol/kg/min, 0 to 255 min) was 31.2 ± 1.94 ng·min/mL and the “Acyl ghrelin AUC0–60 min” value ([1]; healthy men n = 20, iv LEAP2 ~25 pmol/kg/min, fasting period) was 9.50 ± 0.67 ng·min/mL. The “Acyl ghrelin Nadir” value ([1]; healthy men n = 20, iv LEAP2 ~25 pmol/kg/min, liquid mixed meal at 65 min) was 0.088 ± 0.006 ng/mL, the “Acyl ghrelin AUC60–255 min” value ([1]; healthy men n = 20, iv LEAP2 ~25 pmol/kg/min, postprandial period) was 21.7 ± 1.33 ng·min/mL and the “Acyl ghrelin Postprandial baseline” value ([1]; healthy men n = 20, iv LEAP2 ~25 pmol/kg/min, time = 60 min) was 0.161 ± 0.012 ng/mL. The “plasma glucose mean concentration during the pharmacokinetic study” value ([2]; healthy fasting men n = 8, -30 to 270 min, LEAP2 infusion 0 to 120 min) was 4.85 ± 0.02 mmol/L, the VAS comfort [2, 4] was 78 (72–90) mm and the VAS fullness [2, 4] was 21 (12–31) mm. For the same compound, the “VAS prospective food consumption” value [2, 4] was 73 (65–82) mm, the VAS satiety [2, 4] was 22 (14–33) mm and the VAS thirst [2, 4] was 78 (71–89) mm. For the same compound, the VAS hunger ([2]; healthy fasting men n = 8, every 30 min from -30 to 270 min, LEAP2 infusion 0 to 120 min, median (interquartile range)) was 72 (59–79) mm, the “fasting plasma glucose concentrations vs vehicle” value [3] was “did not affect fasting plasma glucose concentrations” and the “fasting insulin concentrations vs vehicle” value ([3]; 20 and 60 min) was “no effect”.
